The text below walks through data of article PMC5218480 (PLoS ONE, 2017).

For this assay, the system named is MV-4-11 cells. The assay is described as follows: Gene expression microarray analysis (Affymetrix PrimeView) and GSEA. In kind it is cell-based, human. The arrangement: RFU PODN (11730768_x_at) / Fold change /veh PODN (11730768_x_at) / RFU LINC00158 (11744669_a_at) / Fold change /veh LINC00158 (11744669_a_at) / RFU DUSP10 (11751237_a_at) / Fold change /veh DUSP10 (11751237_a_at) / RFU ID3 (11757404_x_at) / Fold change /veh ID3 (11757404_x_at) / RFU PLEKHG5 (11737974_s_at) / Fold change /veh PLEKHG5 (11737974_s_at) / RFU LRRC4B (11730491_at) / Fold change /veh LRRC4B (11730491_at) / RFU GIMAP4 (11747438_a_at) / Fold change /veh GIMAP4 (11747438_a_at) / RFU KRT8 (11758183_x_at) / Fold change /veh KRT8 (11758183_x_at) / RFU CNN1 (11734310_a_at) / Fold change /veh CNN1 (11734310_a_at) / RFU VPS37D (11726825_at) / Fold change /veh VPS37D (11726825_at) / RFU C10orf10 (11716522_x_at) / Fold change /veh C10orf10 (11716522_x_at) / RFU KIR2DL2 /// KIR2DL4 /// KIR2DL5A /// KIR2DL5B /// KIR2DS1 /// KIR2DS2 /// KIR2DS3 /// KIR2DS4 /// KIR3DL3 /// KIR3DL3 /// KIR3DS1 (11738374_at) / Fold change /veh KIR2DL2 /// KIR2DL4 /// KIR2DL5A /// KIR2DL5B /// KIR2DS1 /// KIR2DS2 /// KIR2DS3 /// KIR2DS4 /// KIR3DL3 /// KIR3DL3 /// KIR3DS1 (11738374_at) / RFU C1QL1 (11718748_at) / Fold change /veh C1QL1 (11718748_at) / RFU TMPRSS4 (11747572_a_at) / Fold change /veh TMPRSS4 (11747572_a_at) / RFU HAMP (11756126_x_at) / Fold change /veh HAMP (11756126_x_at) / RFU RNFT2 (11725882_a_at) / Fold change /veh RNFT2 (11725882_a_at) / RFU NR4A2 (11747474_a_at) / Fold change /veh NR4A2 (11747474_a_at) / RFU ABCC12 (11746883_a_at) / Fold change /veh ABCC12 (11746883_a_at) / RFU TMEM136 (11760407_x_at) / Fold change /veh TMEM136 (11760407_x_at) / RFU CLDN22 /// WWC2 (11732394_at) / Fold change /veh CLDN22 /// WWC2 (11732394_at) / RFU HLA-DPB1 (11760878_x_at) / Fold change /veh HLA-DPB1 (11760878_x_at) / RFU SPINT1 (11716480_a_at) / Fold change /veh SPINT1 (11716480_a_at) / RFU GAP43 (11754022_s_at) / Fold change /veh GAP43 (11754022_s_at) / RFU A4GNT (11735810_at) / Fold change /veh A4GNT (11735810_at) / RFU PRB3 (11715151_x_at) / Fold change /veh PRB3 (11715151_x_at) / RFU TUBB4B (11761932_at) / Fold change /veh TUBB4B (11761932_at) / RFU CAPN14 (11732068_a_at) / Fold change /veh CAPN14 (11732068_a_at) / RFU TMCC2 (11721928_a_at) / Fold change /veh TMCC2 (11721928_a_at) / RFU IRGQ (11745062_a_at) / Fold change /veh IRGQ (11745062_a_at) / RFU FAM174B (11720279_a_at) / Fold change /veh FAM174B (11720279_a_at) / RFU TMPRSS4 (11748680_a_at) / Fold change /veh TMPRSS4 (11748680_a_at) / RFU FAM212B (11763350_a_at) / Fold change /veh FAM212B (11763350_a_at) / RFU PLEKHG5 (11743358_a_at) / Fold change /veh PLEKHG5 (11743358_a_at) / RFU ZSCAN30 (11745921_a_at) / Fold change /veh ZSCAN30 (11745921_a_at) / RFU CMKLR1 (11741424_a_at) / Fold change /veh CMKLR1 (11741424_a_at) / RFU LOC101060620 /// MAPK8IP1 (11723275_at) / Fold change /veh LOC101060620 /// MAPK8IP1 (11723275_at) / RFU SPTSSB (11747773_x_at) / Fold change /veh SPTSSB (11747773_x_at) / RFU PRSS12 (11739890_at) / Fold change /veh PRSS12 (11739890_at) / RFU BIN1 (11741810_x_at) / Fold change /veh BIN1 (11741810_x_at) / RFU WNT11 (11732464_a_at) / Fold change /veh WNT11 (11732464_a_at) / RFU C10orf10 (11716521_a_at) / Fold change /veh C10orf10 (11716521_a_at) / RFU C5orf56 (11738089_at) / Fold change /veh C5orf56 (11738089_at) / RFU CYB561 (11721691_x_at) / Fold change /veh CYB561 (11721691_x_at) / RFU ANKRD19P (11752326_a_at) / Fold change /veh ANKRD19P (11752326_a_at) / RFU OR2T12 /// OR2T33 /// OR2T8 (11738714_s_at) / Fold change /veh OR2T12 /// OR2T33 /// OR2T8 (11738714_s_at) / RFU VCAN (11748164_a_at) / Fold change /veh VCAN (11748164_a_at) / RFU JSRP1 (11732532_at) / Fold change /veh JSRP1 (11732532_at) / RFU KRTAP10-11 (11738290_x_at) / Fold change /veh KRTAP10-11 (11738290_x_at) / RFU MYO3A (11730013_a_at) / Fold change /veh MYO3A (11730013_a_at) / RFU EBF3 (11725865_a_at) / Fold change /veh EBF3 (11725865_a_at) / RFU CAMK2N1 (11719241_x_at) / Fold change /veh CAMK2N1 (11719241_x_at) / RFU C5orf56 (11738088_a_at) / Fold change /veh C5orf56 (11738088_a_at) / RFU OLFML3 (11715873_a_at) / Fold change /veh OLFML3 (11715873_a_at) / RFU LOC100653217 /// NTM (11731650_a_at) / Fold change /veh LOC100653217 /// NTM (11731650_a_at) / RFU MAPK11 (11762145_a_at) / Fold change /veh MAPK11 (11762145_a_at) / RFU FIZ1 (11724087_x_at) / Fold change /veh FIZ1 (11724087_x_at) / RFU OASL (11726364_x_at) / Fold change /veh OASL (11726364_x_at) / RFU SOX15 (11748057_x_at) / Fold change /veh SOX15 (11748057_x_at) / RFU CD79A (11719716_a_at) / Fold change /veh CD79A (11719716_a_at) / RFU HIST1H1D (11736915_at) / Fold change /veh HIST1H1D (11736915_at) / RFU CASKIN2 (11723855_a_at) / Fold change /veh CASKIN2 (11723855_a_at) / RFU LOC730098 (11760151_x_at) / Fold change /veh LOC730098 (11760151_x_at) / RFU OR4N2 (11742367_at) / Fold change /veh OR4N2 (11742367_at) / RFU PRRT2 (11749266_a_at) / Fold change /veh PRRT2 (11749266_a_at) / RFU SNX32 (11753110_a_at) / Fold change /veh SNX32 (11753110_a_at) / RFU CDHR5 (11726645_a_at) / Fold change /veh CDHR5 (11726645_a_at) / RFU RCAN1 (11760418_a_at) / Fold change /veh RCAN1 (11760418_a_at) / RFU FAM167A (11723789_a_at) / Fold change /veh FAM167A (11723789_a_at) / RFU FAM26E (11764081_at) / Fold change /veh FAM26E (11764081_at) / RFU ISYNA1 (11749810_s_at) / Fold change /veh ISYNA1 (11749810_s_at) / RFU ACY1 (11761880_at) / Fold change /veh ACY1 (11761880_at) / RFU 11764098_at / Fold change /veh 11764098_at / RFU SAMD14 (11745864_x_at) / Fold change /veh SAMD14 (11745864_x_at) / RFU NPB (11741838_a_at) / Fold change /veh NPB (11741838_a_at) / RFU TMPRSS6 (11731388_a_at) / Fold change /veh TMPRSS6 (11731388_a_at) / RFU KRTAP10-2 (11738614_at) / Fold change /veh KRTAP10-2 (11738614_at) / RFU ARHGAP8 /// PRR5-ARHGAP8 (11727945_x_at) / Fold change /veh ARHGAP8 /// PRR5-ARHGAP8 (11727945_x_at) / RFU KRTAP5-7 /// NADSYN1 (11734609_at) / Fold change /veh KRTAP5-7 /// NADSYN1 (11734609_at) / RFU RASL12 (11751679_a_at) / Fold change /veh RASL12 (11751679_a_at) / RFU CDKN2B (11736163_a_at) / Fold change /veh CDKN2B (11736163_a_at) / RFU PRF1 (11729649_at) / Fold change /veh PRF1 (11729649_at) / RFU, ZNF638 /// ZNF638-IT1 / Fold change vs veh, ZNF638 /// ZNF638-IT1 / RFU, PANK3 / Fold change vs veh, PANK3 / RFU, SH3YL1 / Fold change vs veh, SH3YL1 / RFU, ZEB2 / Fold change vs veh, ZEB2 / RFU, NRIP1 / Fold change vs veh, NRIP1 / RFU, PTTG1IP / Fold change vs veh, PTTG1IP / RFU, CAPN2 / Fold change vs veh, CAPN2 / RFU, MED14 / Fold change vs veh, MED14 / RFU, SNORA58 / Fold change vs veh, SNORA58 / RFU, C1orf63 / Fold change vs veh, C1orf63 / RFU, LRRFIP1 / Fold change vs veh, LRRFIP1 / RFU, NDUFAF7 / Fold change vs veh, NDUFAF7 / RFU, SLC12A2 / Fold change vs veh, SLC12A2 / RFU, IBTK / Fold change vs veh, IBTK / RFU, ESF1 / Fold change vs veh, ESF1 / Fold change vs veh, TMEM50B / RFU, TAOK1 / Fold change vs veh, TAOK1 / RFU, ACBD3 / Fold change vs veh, ACBD3 / RFU, TMA16 / Fold change vs veh, TMA16 / RFU, RWDD3 / Fold change vs veh, RWDD3 / RFU, BCAT1 / Fold change vs veh, BCAT1 / RFU, EDEM3 / Fold change vs veh, EDEM3 / RFU, TMEM33 / Fold change vs veh, TMEM33 / RFU, WDR75 / Fold change vs veh, WDR75 / RFU, AHCTF1 / Fold change vs veh, AHCTF1 / RFU, TFRC / Fold change vs veh, TFRC / RFU, ZDHHC17 / Fold change vs veh, ZDHHC17 / RFU, NOM1 / Fold change vs veh, NOM1 / RFU, ARL8B / Fold change vs veh, ARL8B / RFU, ZBTB11 / Fold change vs veh, ZBTB11 / RFU, TAMM41 / Fold change vs veh, TAMM41 / RFU, KIAA1704 /// LOC100996395 / Fold change vs veh, KIAA1704 /// LOC100996395 / RFU, ING1 / Fold change vs veh, ING1 / RFU, TRMT61B / Fold change vs veh, TRMT61B / RFU, FUBP3 / Fold change vs veh, FUBP3 / RFU, TP53 / Fold change vs veh, TP53 / RFU, TNKS2 / Fold change vs veh, TNKS2 / RFU, ZFP14 / Fold change vs veh, ZFP14 / RFU, ACTR2 / Fold change vs veh, ACTR2 / RFU, PPP3R1 / Fold change vs veh, PPP3R1 / RFU, PIK3R1 / Fold change vs veh, PIK3R1 / RFU, HNRNPA1 / Fold change vs veh, HNRNPA1 / RFU, RNF170 / Fold change vs veh, RNF170 / RFU, ZNF28 / Fold change vs veh, ZNF28 / RFU, RNGTT / Fold change vs veh, RNGTT / RFU, OGT / Fold change vs veh, OGT / RFU, BRD1 / Fold change vs veh, BRD1 / RFU, MARS / Fold change vs veh, MARS / RFU, ZNF655 / Fold change vs veh, ZNF655 / RFU, FAHD1 / Fold change vs veh, FAHD1 / RFU, BDP1 / Fold change vs veh, BDP1 / RFU, LRRCC1 / Fold change vs veh, LRRCC1 / RFU, ARID1A / Fold change vs veh, ARID1A / RFU, ZNF146 / Fold change vs veh, ZNF146 / RFU, ZNF330 / Fold change vs veh, ZNF330 / RFU, GPN3 / Fold change vs veh, GPN3 / RFU, C9orf123 / Fold change vs veh, C9orf123 / RFU, N4BP2L2 / Fold change vs veh, N4BP2L2 / RFU, ARFIP1 / Fold change vs veh, ARFIP1 / RFU, FAM179B / Fold change vs veh, FAM179B / RFU, BCL10 / Fold change vs veh, BCL10 / RFU, UHRF1BP1L / Fold change vs veh, UHRF1BP1L / RFU, BET1 / Fold change vs veh, BET1 / RFU, CNOT2 / Fold change vs veh, CNOT2 / RFU, ZNF268 / Fold change vs veh, ZNF268 / Fold change vs veh, ZNF507 / RFU, DGCR2 / Fold change vs veh, DGCR2 / RFU, WDSUB1 / Fold change vs veh, WDSUB1 / Fold change vs veh, HSP90B1 /// MIR3652 / RFU, ADSS / Fold change vs veh, ADSS / RFU, GK / Fold change vs veh, GK / RFU, ZNF148 / Fold change vs veh, ZNF148 / RFU, TAF9 / Fold change vs veh, TAF9 / RFU, SLC1A5 / Fold change vs veh, SLC1A5 / RFU, SLMO2 / Fold change vs veh, SLMO2 / RFU, ABCC4 / Fold change vs veh, ABCC4 / RFU, LOC101060439 /// RAP1B / Fold change vs veh, LOC101060439 /// RAP1B / RFU, RFX7 / Fold change vs veh, RFX7 / RFU, GTPBP10 / Fold change vs veh, GTPBP10 / RFU, CNEP1R1 / Fold change vs veh, CNEP1R1 / RFU, BIVM-ERCC5 /// ERCC5 / Fold change vs veh, BIVM-ERCC5 /// ERCC5 / RFU, ILF3 / Fold change vs veh, ILF3 / RFU 11762660_at / Fold change /veh 11762660_at / RFU VCAN (11757783_s_at) / Fold change /veh VCAN (11757783_s_at) / RFU DDX43 (11728927_at) / Fold change /veh DDX43 (11728927_at) / RFU KRT8 (11758188_x_at) / Fold change /veh KRT8 (11758188_x_at) / RFU NKD1 (11759106_at) / Fold change /veh NKD1 (11759106_at) / RFU SRD5A1 (11742802_a_at) / Fold change /veh SRD5A1 (11742802_a_at) / RFU TPSAB1 /// TPSB2 (11721975_s_at) / Fold change /veh TPSAB1 /// TPSB2 (11721975_s_at) / RFU GSTM3 (11746129_a_at) / Fold change /veh GSTM3 (11746129_a_at) / RFU IL23R (11737362_x_at) / Fold change /veh IL23R (11737362_x_at) / RFU TMEM51 (11727254_a_at) / Fold change /veh TMEM51 (11727254_a_at) / RFU PIWIL2 (11732686_x_at) / Fold change /veh PIWIL2 (11732686_x_at) / RFU ORM1 (11744905_x_at) / Fold change /veh ORM1 (11744905_x_at) / RFU CCDC152 (11743942_at) / Fold change /veh CCDC152 (11743942_at) / RFU ECM1 (11717891_a_at) / Fold change /veh ECM1 (11717891_a_at) / RFU IL23R (11748794_a_at) / Fold change /veh IL23R (11748794_a_at) / RFU TNFAIP8L3 (11732012_x_at) / Fold change /veh TNFAIP8L3 (11732012_x_at) / RFU MBOAT4 (11741988_at) / Fold change /veh MBOAT4 (11741988_at) / RFU 11764193_at / Fold change /veh 11764193_at / RFU TMEM53 (11763286_at) / Fold change /veh TMEM53 (11763286_at) / RFU MAGEB2 (11727129_at) / Fold change /veh MAGEB2 (11727129_at) / RFU TMEM200A (11744735_a_at) / Fold change /veh TMEM200A (11744735_a_at) / RFU CCDC152 (11751479_a_at) / Fold change /veh CCDC152 (11751479_a_at) / RFU FAM211A (11726209_a_at) / Fold change /veh FAM211A (11726209_a_at) / RFU RGS16 (11746705_a_at) / Fold change /veh RGS16 (11746705_a_at) / RFU VCAN (11755009_s_at) / Fold change /veh VCAN (11755009_s_at) / RFU RHOB (11743442_s_at) / Fold change /veh RHOB (11743442_s_at) / RFU RGS16 (11720943_a_at) / Fold change /veh RGS16 (11720943_a_at) / RFU RGS16 (11720944_at) / Fold change /veh RGS16 (11720944_at) / RFU, VPS4B / Fold change vs veh, VPS4B / RFU, CREB1 / Fold change vs veh, CREB1 / RFU, DNAJC13 / Fold change vs veh, DNAJC13 / RFU, GNAQ / Fold change vs veh, GNAQ / RFU, CDK5R1 / Fold change vs veh, CDK5R1 / RFU, ZRANB3 / Fold change vs veh, ZRANB3 / RFU, CUL4A / Fold change vs veh, CUL4A / RFU, CCNY / Fold change vs veh, CCNY / RFU, UFL1 / Fold change vs veh, UFL1 / RFU, COG3 / Fold change vs veh, COG3 / RFU, DIAPH2 / Fold change vs veh, DIAPH2 / RFU, SKA2 / Fold change vs veh, SKA2 / RFU, AFF3 / Fold change vs veh, AFF3 / RFU, LMF1 / Fold change vs veh, LMF1 / RFU, IPO11 / Fold change vs veh, IPO11 / RFU, DFFB / Fold change vs veh, DFFB / RFU, FOXP1 / Fold change vs veh, FOXP1 / RFU, CARD8 / Fold change vs veh, CARD8 / RFU, STRN3 / Fold change vs veh, STRN3 / RFU, ADK / Fold change vs veh, ADK / RFU, RASSF2 / Fold change vs veh, RASSF2 / RFU, WIPF1 / Fold change vs veh, WIPF1 / RFU, LARP1B / Fold change vs veh, LARP1B / RFU, RASA1 / Fold change vs veh, RASA1 / RFU, RB1 / Fold change vs veh, RB1 / RFU, PPFIA1 / Fold change vs veh, PPFIA1 / RFU, MAT2A / Fold change vs veh, MAT2A / RFU, CCT5 / Fold change vs veh, CCT5 / RFU, WDR92 / Fold change vs veh, WDR92 / RFU, CUX1 / Fold change vs veh, CUX1 / RFU, TTC7A / Fold change vs veh, TTC7A / RFU, TMEM135 / Fold change vs veh, TMEM135 / RFU, DEPTOR / Fold change vs veh, DEPTOR / RFU, CPM / Fold change vs veh, CPM / RFU, DNAJB6 / Fold change vs veh, DNAJB6 / RFU, CACNA2D3 / Fold change vs veh, CACNA2D3 / RFU, DTX4 / Fold change vs veh, DTX4 / RFU, TFCP2 / Fold change vs veh, TFCP2 / RFU, GMCL1 /// GMCL1P1 / Fold change vs veh, GMCL1 /// GMCL1P1 / RFU, AEBP2 / Fold change vs veh, AEBP2 / RFU, SNHG1 /// SNORD22 /// SNORD25 /// SNORD26 /// SNORD27 /// SNORD28 /// SNORD29 /// SNORD31 / Fold change vs veh, SNHG1 /// SNORD22 /// SNORD25 /// SNORD26 /// SNORD27 /// SNORD28 /// SNORD29 /// SNORD31 / Fold change (Aza/veh), C12orf56 (ProbeSet 11735607_a_at) / Fold change (ACY-1035/veh), C12orf56 (ProbeSet 11735607_a_at) / Fold change (Aza/veh), FGFR1OP (ProbeSet 11751329_s_at) / Fold change (ACY-1035/veh), FGFR1OP (ProbeSet 11751329_s_at) / Fold change (Aza/veh), VPS36 (ProbeSet 11739960_a_at) / Fold change (ACY-1035/veh), VPS36 (ProbeSet 11739960_a_at) / RFU SYPL1 (11715823_x_at) / Fold change /veh SYPL1 (11715823_x_at) / RFU IGFBP7 (11715501_s_at) / Fold change /veh IGFBP7 (11715501_s_at) / RFU REEP3 (11722064_at) / Fold change /veh REEP3 (11722064_at) / RFU IGLL1 (11728026_x_at) / Fold change /veh IGLL1 (11728026_x_at): dose or concentration left out as unconfirmed. The note with it: MV-4-11 cells, 48 hours.

For `Nc1ccc(-c2cccs2)cc1NC(=O)c1ccc2c(c1)cc(C1CC1)n2CCN1CCOCC1` [ACY-1035], the “Fold change /veh TMEM200A (11744735_a_at)” value turned out to be 1.19.
